In BindingDB's records for doi:10.1002/cbic.201500668 (University of Siena, 2016):

Columns and labels:
[1] = target: T1, Gag-Pol polyprotein (Human immunodeficiency virus type 1 group M subtype B (isolate NY5), UniProt P12497); assay: RNase H (RH) Assay; conditions: pH 7.8; 37 °C
Procedure: HIV RT-associated RNase H activity was measured as previously described.[J. Med. Chem. 2014, 57:3223-3234] Briefly, the reaction mixture comprised Tris HCl ([…], 50 mm, pH 7.8) containingMgCl2 (6 mm), dithiothreitol (1 mm), KCl (80 mm), hybrid RNA/DNA 5'-GAUCU GAGCC UGGGA GCU-Fluorescin-3' (0.25 mm; HPLC, dry, QC: Mass Check; Metabion, Steinkirchen, Germany), 5'-Dabcyl-AGCTC CCAGG CTCAG ATC-3' (HPLC, dry, QC: Mass Check), and HIV-1 RT (20 ng, according to a linear range of dose-activity curve). The reaction mixture was incubated for 1 h at 37 °C, and the reaction was stopped by addition of EDTA; products were measured with a Victor 3 multilabel counter plate reader (model 1420-051; PerkinElmer) equipped with filters (lex=490 nm, lem=528 nm).

[2] = target: T1, Gag-Pol polyprotein; assay: RNA-dependent DNA Polymerase (RDDP) Assay; conditions: pH 8.1; 37 °C
Procedure: RNA-dependent DNA polymerase (RDDP) activity was measured as described[J. Microbiol. […] After enzyme addition, the reaction mixture was incubated for 30 min at 37 °C, then the reaction was stopped by addition of EDTA.

Structure (SMILES)	IC50 [1] [µM]	IC50 [2] [µM]
CCCCCn1c(=O)c2c(nc3n2CC(C)CN3c2ccc(OC)cc2)n(C)c1=O (stereo unspecified) [STOCK4S-37006 (4)]	97	100
CCc1ccc(N2CC(O)Cn3c2nc2c3c(=O)n(C)c(=O)n2C)cc1 (stereo unspecified) [STOCK2S-18057 (3)]		> 100
CCOc1ccc(N2CC(O)Cn3c2nc2c3c(=O)n(CC(N)=O)c(=O)n2C)cc1 (stereo unspecified) [STOCK5S-55040 (5)]		> 100
CCOc1ccc(N2CC(O)Cn3c2nc2c3c(=O)n(CC(=O)OCc3ccccc3)c(=O)n2C)cc1 (stereo unspecified) [STOCK4S-60534 (6)]	33	28.5
Cn1c(=O)c2c(nc3n2CC(O)CN3c2ccc(O)cc2)n(C)c1=O (stereo unspecified) [MAS0 (1)]	100	> 100
CCCCCn1c(=O)c2c(nc3n2CCCN3c2ccc(Oc3ccccc3)cc2)n(C)c1=O [STOCK5S-18255 (2)]	25	69
CCOC(=O)C(=O)CC(=O)/C=C/c1cccn1Cc1ccccc1Cl [RDS1759]	7.5	
